Experimental data from patent US20070287703A1, “Fused Pyrimidones Useful in the Treatment and the Prevention of Cancer” (AstraZeneca AB, priority 2004, published 2007).
pIC50: −log10 of the molar value.

Biological target: T1, recombinant HsEg5 motor domain (amino acids 1-369-8His) (Homo sapiens, UniProt P52732)
T1 construct: recombinant HsEg5 motor domain (amino acids 1-369-8His); 8His (C)
T1 sequence (P52732 1-369): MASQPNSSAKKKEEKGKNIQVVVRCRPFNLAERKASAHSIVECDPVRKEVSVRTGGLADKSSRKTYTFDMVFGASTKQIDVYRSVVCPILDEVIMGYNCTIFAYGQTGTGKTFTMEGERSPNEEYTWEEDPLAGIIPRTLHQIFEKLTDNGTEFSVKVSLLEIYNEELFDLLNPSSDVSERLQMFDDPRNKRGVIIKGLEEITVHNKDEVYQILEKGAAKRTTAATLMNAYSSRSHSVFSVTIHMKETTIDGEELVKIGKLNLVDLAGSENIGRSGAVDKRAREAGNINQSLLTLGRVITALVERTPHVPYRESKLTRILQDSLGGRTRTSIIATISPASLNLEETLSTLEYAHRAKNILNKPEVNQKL
Assay: Malachite Green Assay of Eg5 motor ATPase activity
Type: biochemical
Settings: 6 nM enzyme, 300 μM ATP, 908 nM polymerized tubulin, 20 min pre-incubation, 20 min reaction at room temperature
Description: Enzymatic activity of the Eg5 motor and effects of inhibitors was measured using a malachite green assay, which measures phosphate liberated from ATP, and has been used previously to measure the activity of kinesin motors (Hackney D D, and Jiang W, Assays for kinesin microtubule-stimulated ATPase activity; Methods in Molecular Biology vol 164:65-71 (2001)). Enzyme was recombinant HsEg5 motor domain (amino acids 1-369-8His) and was added at a final concentration of 6 nM to 100 μl reactions. […]
5 μl of compound diluted in 12% DMSO was added to the wells of 96 well plates. […] The reactions were then quenched by the addition of 150 μl malachite green/ammonium molybdate reagent, and absorbance read at 650 nanometers exactly 5 min after quench using a Spectramax Plus plate reader (Molecular Devices). Data was graphed and IC50s calculated using ExCel Fit (Microsoft).

CCC(c1nc2n(c(=O)c1Cc1ccccc1)CCCS2)N(CCCN)C(=O)c1ccc(OC)cc1 (stereo not shown) [Example 4, 3,4-Dihydro-6-oxo-7-benzyl-8-{1-[N-(4-methoxybenzoyl)-N-(3-aminopropyl)amino]propyl}-2H,6H-pyrimido[2,1-b][1,3]thiazine]
pIC50: 6.48
